Literature values, collected in patent publication US10245273B2, “Oral pharmaceutical products and methods of use combining testosterone esters with hypolipidemic agents” (Clarus Therapeutics, Inc., priority 2013, dated 2019).

For `Cc1ccc(C)c(OCCCC(C)(C)C(=O)O)c1` [gemfibrozil], the “Subjects with a primary event” value (600 mg twice daily for 5 years (placebo 21.7%)) is given as 17.3%, the “Reduction in CHD events / relative risk reduction of primary outcome (nonfatal myocardial infarction or death of cardiac origin)” value (600 mg twice daily, median follow-up 5.1 years, vs placebo) is given as 22% and the “Increase in numbers of small HDL particles” value (in vivo) is given as 21%. The “Increase in total HDL particles” value (in vivo) was 10% and the “Relative risk reduction for combined cardiac events (nonfatal MI, death from coronary causes or stroke)” value (vs placebo) was 24%.
